According to ChEMBL document CHEMBL5661943, “ASAP - In vitro antiviral effect” (2024):

Legend:
Zika virus = assay: EC50 is reported via analysis of immunofluorescence staining. The assay has been performed by Icahn School of Medicine at Mount Sinai.; assay type: functional, organism-based, Chlorocebus sabaeus, VeroE6/TMPRSS2; conditions: for EC90: P-gp concentration 2 uM, P-gp inhibitor Elacidar
dengue virus type 2 = assay: Functional immunofluorescence assay to measure dose dependent changes in antiviral-drug inhibitory efficacy against Dengue virus type 2 Thailand/16681/84 in Vero E6/TMPRSS2 cells (cotreated with P-gp inhibitor, Elacridar). Cells are treated with antiviral candidates that are serially diluted, following infection, cells are fixed. EC50 is reported via analysis of immunofluorescence staining. The assay has been performed by Icahn School of Medicine at Mount Sinai.; assay type: organism-based, Chlorocebus sabaeus, VeroE6/TMPRSS2; conditions: for EC90: P-gp concentration 2 uM, P-gp inhibitor Elacidar

## NCc1cccc(NC(=O)c2cc(Cl)cc3c2CCC3)c1
Zika virus; Zika virus, VeroE6/TMPRSS2
  EC50: > 16.7 µM
Zika virus; Zika virus, VeroE6/TMPRSS2, Maximum measured 83.197 %, Minimum measured 51.618 %
  EC90: > 16.7 µM
Dengue virus type 2; Dengue virus, VeroE6/TMPRSS2
  EC50: > 10 µM
Dengue virus type 2; Dengue virus, VeroE6/TMPRSS2, Maximum measured 223.993 %, Minimum measured 74.273 %
  EC90: > 16.7 µM
Dengue virus type 2; Dengue virus, VeroE6/TMPRSS2, Baseline response 0 %, Hill slope 0.162, Maximum measured 165.889 %, Maximum response 100 %, Minimum measured 52.995 %, R squared 0.068
  EC90: > 10 µM
Dengue virus type 2; veroe6/tmprss2
  EC50: > 16.7 µM

## NCc1cccc(NC(=O)[C@@H](NC(=O)OCc2ccccc2)c2ccc(Br)c(Cl)c2)c1
Zika virus; Zika virus, VeroE6/TMPRSS2
  EC50: 0.557 µM
Zika virus; Zika virus, VeroE6/TMPRSS2, Baseline response 0 %, Hill slope -0.711, Maximum measured 91.358 %, Maximum response 100 %, Minimum measured 2.864 %, R squared 0.54
  EC90: > 5.56 µM
Dengue virus type 2; Dengue virus, VeroE6/TMPRSS2
  EC50: > 5.56 µM
Dengue virus type 2; Dengue virus, VeroE6/TMPRSS2, Maximum measured 72.758 %, Minimum measured 24.513 %
  EC90: > 5.56 µM

## CCOc1cccc(-c2ccc(S(=O)(=O)Nc3ccc(Cl)cc3C(=O)O)cc2)c1
Zika virus; Baseline response 0 %, Hill slope -0.264, Maximum measured 100.253 %, Maximum response 100 %, Minimum measured 37.313 %, R squared 0.296
  EC90: > 16.7 µM
Zika virus; Zika virus, VeroE6/TMPRSS2
  EC50: > 10 µM
Zika virus; Zika virus, VeroE6/TMPRSS2, Baseline response 0 %, Hill slope -0.107, Maximum measured 149.039 %, Maximum response 100 %, Minimum measured 60.172 %, R squared 0.014
  EC90: > 10 µM
Zika virus; veroe6/tmprss2
  EC50: 9.76 µM
Dengue virus type 2; Dengue virus, VeroE6/TMPRSS2, Maximum measured 86.49 %, Minimum measured 33.39 %
  EC90: > 3.33 µM
Dengue virus type 2; Dengue virus, VeroE6/TMPRSS2, Maximum measured 135.635 %, Minimum measured 86.345 %
  EC90: > 16.7 µM
Dengue virus type 2; veroe6/tmprss2
  EC50: > 16.7 µM

## O=C(Nc1cc(Cl)cc(N[C@H](C#CCO)c2ccc(-c3nn[nH]n3)cc2)c1)OCc1ccccc1
Zika virus; Zika virus, VeroE6/TMPRSS2
  EC50: > 16.7 µM
Zika virus; Zika virus, VeroE6/TMPRSS2, Maximum measured 78.226 %, Minimum measured 29.543 %
  EC90: > 16.7 µM
Dengue virus type 2; Dengue virus, VeroE6/TMPRSS2
  EC50: > 50 µM
Dengue virus type 2; Dengue virus, VeroE6/TMPRSS2, Baseline response 0 %, Hill slope -0.373, Maximum measured 106.055 %, Maximum response 100 %, Minimum measured 56.8 %, R squared 0.212
  EC90: > 50 µM

## CNC(=O)[C@H](Nc1cc(Cl)cc(NC(=O)OCc2ccccc2)c1)c1cccc(-c2nn[nH]n2)c1
Zika virus; Zika virus, VeroE6/TMPRSS2
  EC50: > 50 µM
Zika virus; Zika virus, VeroE6/TMPRSS2, Maximum measured 214.272 %, Minimum measured 122.906 %
  EC90: > 50 µM
Dengue virus type 2; Dengue virus, VeroE6/TMPRSS2
  EC50: > 50 µM
Dengue virus type 2; Dengue virus, VeroE6/TMPRSS2, Baseline response 0 %, Hill slope -0.094, Maximum measured 132.889 %, Maximum response 100 %, Minimum measured 51.11 %, R squared 0.041
  EC90: > 50 µM

## CCc1cc(Cl)cc(C(=O)Nc2ccc3c(c2)CNC3)c1
Dengue virus type 2; Dengue virus, VeroE6/TMPRSS2
  EC50: > 16.7 µM
Dengue virus type 2; Dengue virus, VeroE6/TMPRSS2, Baseline response 0 %, Hill slope -0.226, Maximum measured 109.554 %, Maximum response 100 %, Minimum measured 84.826 %, R squared 0.106
  EC90: > 16.7 µM

## O=C(Nc1cc(Cl)cc(S(=O)(=O)Nc2cccc(-c3nn[nH]n3)c2)c1)OCc1ccccc1
Zika virus; Zika virus, VeroE6/TMPRSS2
  EC50: > 16.7 µM
Zika virus; Zika virus, VeroE6/TMPRSS2, Maximum measured 147.808 %, Minimum measured 131.825 %
  EC90: > 16.7 µM
Dengue virus type 2; Dengue virus, VeroE6/TMPRSS2
  EC50: > 50 µM
Dengue virus type 2; Dengue virus, VeroE6/TMPRSS2, Maximum measured 125.288 %, Minimum measured 43.28 %
  EC90: > 50 µM

## O=C(Nc1ccc2c(c1)CNC2)c1cc(Br)cc2[nH]c(C3CCOCC3)nc12
Zika virus; Zika virus, VeroE6/TMPRSS2
  EC50: > 5.56 µM
Zika virus; Zika virus, VeroE6/TMPRSS2, Maximum measured 127.67 %, Minimum measured 33.686 %
  EC90: > 5.56 µM
Dengue virus type 2; Dengue virus, VeroE6/TMPRSS2
  EC50: > 5.56 µM
Dengue virus type 2; Dengue virus, VeroE6/TMPRSS2, Maximum measured 89.147 %, Minimum measured 35.738 %
  EC90: > 5.56 µM
